From patent publication US4401660A, “Ester derivatives of 5-O-mycaminosyl tylonolide and method of using same” (Eli Lilly and Company, priority 1981, dated 1983)
Read-outs that look alike come from different tables or passages of the source.

What was measured:
[1] = tested on: Haemophilus influenzae Holt; assay: MIC, standard agar-dilution assay (Table II); type: cell-based; parameters: unit not given here; details: ampicillin-sensitive strain
Method: (§1) The MIC's in Table II were determined by standard agar-dilution assays. The MIC's in Table III were obtained using a conventional broth-dilution microtiter test.

[2] = tested on: Haemophilus influenzae R252; assay: MIC, standard agar-dilution assay (Table II); type: cell-based; parameters: unit not given here; details: Haemophilus influenzae R252, ampicillin-resistant strain
Method: as §1

[3] = tested on: Staphylococcus aureus S13E; assay: MIC, standard agar-dilution assay (Table II); type: cell-based; parameters: unit not given here
Method: as §1

[4] = tested on: Staphylococcus aureus V41; assay: MIC, standard agar-dilution assay (Table II); type: cell-based; parameters: unit not given here; details: Staphylococcus aureus V41, penicillin-resistant strain
Method: as §1

[5] = tested on: Staphylococcus aureus X1.1; assay: MIC, standard agar-dilution assay (Table II); type: cell-based; parameters: unit not given here
Method: as §1

[6] = tested on: Staphylococcus aureus X400; assay: MIC, standard agar-dilution assay (Table II); type: cell-based; parameters: unit not given here; details: Staphylococcus aureus X400, methicillin-resistant strain
Method: as §1

[7] = tested on: Staphylococcus epidermidis EPI1; assay: MIC, standard agar-dilution assay (Table II); type: cell-based; parameters: unit not given here
Method: as §1

[8] = tested on: Staphylococcus epidermidis EPI2; assay: MIC, standard agar-dilution assay (Table II); type: cell-based; parameters: unit not given here
Method: as §1

[9] = tested on: Streptococcus Group D 9960; assay: MIC, standard agar-dilution assay (Table II); type: cell-based; parameters: unit not given here
Method: as §1

[10] = tested on: Streptococcus Group D X66; assay: MIC, standard agar-dilution assay (Table II); type: cell-based; parameters: unit not given here
Method: as §1

[11] = tested on: Streptococcus pneumoniae Park I; assay: MIC, standard agar-dilution assay (Table II); type: cell-based; parameters: unit not given here
Method: as §1

[12] = tested on: Streptococcus pyogenes C203; assay: MIC, standard agar-dilution assay (Table II); type: cell-based; parameters: unit not given here
Method: as §1

Mycoplasma gallisepticum = assay: MIC, broth-dilution microtiter test (Table III); type: cell-based; parameters: unit not given here
Method: as §1

Mycoplasma hyorhinis = assay: MIC, broth-dilution microtiter test (Table III); type: cell-based; parameters: unit not given here
Method: as §1

Mycoplasma synoviae = assay: MIC, broth-dilution microtiter test (Table III); type: cell-based; parameters: unit not given here
Method: as §1

[13] = tested on: Pasteurella haemolytica 22C; assay: MIC, broth-dilution microtiter test (Table III); type: cell-based; parameters: unit not given here
Method: as §1

[14] = tested on: Pasteurella haemolytica 23C; assay: MIC, broth-dilution microtiter test (Table III); type: cell-based; parameters: unit not given here
Method: as §1

[15] = tested on: Pasteurella haemolytica 41D; assay: MIC, broth-dilution microtiter test (Table III); type: cell-based; parameters: unit not given here
Method: as §1

[16] = tested on: Pasteurella multocida 17E; assay: MIC, broth-dilution microtiter test (Table III); type: cell-based; parameters: unit not given here; details: bovine isolate
Method: as §1

[17] = tested on: Pasteurella multocida 22A; assay: MIC, broth-dilution microtiter test (Table III); type: cell-based; parameters: unit not given here
Method: as §1

[18] = tested on: Pasteurella multocida 40G; assay: MIC, broth-dilution microtiter test (Table III); type: cell-based; parameters: unit not given here
Method: as §1

[19] = tested on: Pasteurella multocida 60A; assay: MIC, broth-dilution microtiter test (Table III); type: cell-based; parameters: unit not given here; details: avian isolate
Method: as §1

[20] = tested on: Pasteurella multocida 68C; assay: MIC, broth-dilution microtiter test (Table III); type: cell-based; parameters: unit not given here
Method: as §1

Staphylococcus aureus = assay: MIC, broth-dilution microtiter test (Table III); type: cell-based; parameters: unit not given here
Method: as §1

Streptococcus sp. 80 = assay: MIC, broth-dilution microtiter test (Table III); type: cell-based; parameters: unit not given here
Method: as §1

[21] = tested on: Streptococcus pyogenes C203; assay: ED50 in mice with experimental infections (Table IV); type: in vivo; details: doses given 1 and 4 hours postinfection; for ED50: Streptococcus pyogenes
Procedure, shortened: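 Mice with experimental infections received test compound twice, at 1 and 4 h postinfection. ED50 is the dose in mg/kg (per administration, ×2) protecting 50% of animals.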

Pasteurella multocida = assay: Treatment of Pasteurella infections in chicks (Table V); type: in vivo, one-day-old chicks; details: 30 mg/kg by subcutaneous injection one and four hours post challenge; for mortality at 30 mg/kg: Pasteurella multocida, sc, 4 h, read-out: Deaths in Treated Chicks/Number Treated (converted)
Procedure, shortened: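 One-day-old chicks challenged subcutaneously with avian P. multocida (0.1 ml of 10^-3 dilution of 20-hour tryptose broth culture). Esters given at 30 mg/kg subcutaneously at 1 and 4 hours post challenge. Untreated infected controls, ten per group.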

[22] = C203, oral, read-out: ED50, Oral
[23] = C203, sc, subcutaneous, read-out: ED50, Subcutaneous

Row | Compound | minimal inhibitory concentration (MIC) [3] | minimal inhibitory concentration (MIC) [4] | minimal inhibitory concentration (MIC) [5] | minimal inhibitory concentration (MIC) [6] | minimal inhibitory concentration (MIC) [7] | minimal inhibitory concentration (MIC) [8] | minimal inhibitory concentration (MIC) [9] | minimal inhibitory concentration (MIC) [10] | minimal inhibitory concentration (MIC) [11] | minimal inhibitory concentration (MIC) [12] | minimal inhibitory concentration (MIC) (Mycoplasma gallisepticum) | minimal inhibitory concentration (MIC) (Mycoplasma hyorhinis) | minimal inhibitory concentration (MIC) [13] | minimal inhibitory concentration (MIC) [14] | minimal inhibitory concentration (MIC) [15] | minimal inhibitory concentration (MIC) [16] | minimal inhibitory concentration (MIC) [17] | minimal inhibitory concentration (MIC) [18] | minimal inhibitory concentration (MIC) [19] | minimal inhibitory concentration (MIC) [20] | further results
1 | CCC(=O)OCC1C=C(C)C=CC(=O)C(C)CC(CC=O)C(OC2OC(C)C(O)C(N(C)C)C2OC(C)=O)C(C)C(O)CC(=O)OC1CC (stereo not drawn) [Compound 12, 2'-O-Acetyl-23-O-propionyl-OMT] | 0.5 | 0.5 | 0.5 | 0.5 | 0.25 | 0.25 | 0.5 | 0.5 | 0.125 | 0.25 | < 0.05 | 3.12 | 6.25 | 3.12 | 3.12 | 1.56 | 0.78 | 0.78 | 1.56 | 1.56 | minimal inhibitory concentration (MIC) [1]: 2; minimal inhibitory concentration (MIC) [2]: 8; minimal inhibitory concentration (MIC) (Mycoplasma synoviae): < 0.05; minimal inhibitory concentration (MIC) (Staphylococcus aureus): 0.39; minimal inhibitory concentration (MIC) (Streptococcus sp. 80): 0.39; ED50 [21, 22]: 150 mg/kg; ED50 [21, 23]: 8.1 mg/kg; mortality at 30 mg/kg (Pasteurella multocida): 0%
2 | CCC1OC(=O)CC(O)C(C)C(OC2OC(C)C(O)C(N(C)C)C2O)C(CC=O)CC(C)C(=O)C=CC(C)=CC1COC(=O)COc1ccccc1 (stereo not drawn) [Compound 36, 23-O-Phenoxyacetyl-OMT] | 0.125 | 0.25 | 0.125 | 0.25 | 0.125 | 0.25 | 0.125 | 0.125 | 0.03 | 0.06 | < 0.05 | 1.56 | 3.12 | 3.12 | 3.12 | 1.56 | 3.12 | 1.56 | 1.56 | 0.78 | minimal inhibitory concentration (MIC) [1]: 0.5; minimal inhibitory concentration (MIC) [2]: 0.5; minimal inhibitory concentration (MIC) (Staphylococcus aureus): 0.39; minimal inhibitory concentration (MIC) (Streptococcus sp. 80): < 0.05; ED50 [21, 22]: > 150 mg/kg; ED50 [21, 23]: 6 mg/kg; mortality at 30 mg/kg (Pasteurella multocida): 10%
3 | CCC1OC(=O)CC(O)C(C)C(OC2OC(C)C(O)C(N(C)C)C2O)C(CC=O)CC(C)C(=O)C=CC(C)=CC1COC(=O)[C@H](NC(=O)OC(C)(C)C)c1ccccc1 (stereo partly drawn) [Compound 40, 23-O-(D-t-BOC-Phenylglycyl)-OMT] | 0.5 | 1 | 0.5 | 1 | 0.5 | 0.5 | 0.5 | 0.5 | 0.06 | 0.125 | < 0.05 | 0.39 | 12.5 | 12.5 | 12.5 | 6.25 | 12.5 | 6.25 | 6.25 | 6.25 | minimal inhibitory concentration (MIC) [1]: 2; minimal inhibitory concentration (MIC) [2]: 2; minimal inhibitory concentration (MIC) (Staphylococcus aureus): 0.78; minimal inhibitory concentration (MIC) (Streptococcus sp. 80): 0.195; ED50 [21, 22]: 116 mg/kg; ED50 [21, 23]: 5 mg/kg; mortality at 30 mg/kg (Pasteurella multocida): 100%
4 | CCC1OC(=O)CC(O)C(C)C(OC2OC(C)C(O)C(N(C)C)C2O)C(CC=O)CC(C)C(=O)C=CC(C)=CC1COP(=O)(Oc1ccccc1)Oc1ccccc1 (stereo not drawn) [Compound 48, 23-O-(Diphenylphosphoryl)-OMT] | 0.25 | 0.25 | 0.25 | 0.25 | 0.25 | 0.25 | 0.25 | 0.25 | 0.03 | 0.125 | 0.78 | 0.78 | 6.25 | 12.5 | 6.25 | 6.25 | 6.25 | 6.25 | 6.25 | 6.25 | minimal inhibitory concentration (MIC) (Mycoplasma synoviae): 0.78; minimal inhibitory concentration (MIC) (Staphylococcus aureus): 0.39; minimal inhibitory concentration (MIC) (Streptococcus sp. 80): 0.195; ED50, Oral ([21]; oral): > 150 mg/kg × 2; ED50, Subcutaneous ([21]; subcutaneous): > 30 mg/kg × 2; Deaths in Treated Chicks/Number Treated (Pasteurella multocida): 10/10
